In patent publication US9976141B2, “Compositions and methods for inhibiting gene expression of Hif2alpha” (Arrowhead Madison Inc., priority 2015, dated 2018):

Tested on: human (tumor) Hif2α (EPAS1) mRNA
Test: Hif2α knockdown in orthotopic RCC tumor bearing mice, single injection of RNAi trigger-delivery polymer conjugate, RT-qPCR (Table 7)
Format: in vivo
Settings: single tail vein injection, relative to isotonic glucose
Procedure, shortened: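 Female athymic nude mice carried orthotopic A498-SEAP ccRCC kidney tumours, used 5–6 weeks after implantation. They received one tail-vein injection of RGD-targeted Hif2α RNAi trigger–polymer conjugate or isotonic glucose. Tumour Hif2α mRNA was measured by TaqMan RT-qPCR normalised to CycA (ΔΔCT) and expressed relative to glucose-treated mice.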

[1] = RNAi trigger 115 μg, polymer 100A 375 μg
[2] = RNAi trigger 80 μg, polymer 126 400 μg
[3] = RNAi trigger 50 μg, polymer 064 125 μg

AD01659 (antisense TUUCAUGAAAUCGUUACGUTT; sense ACGUAACGAUUUCAUGAAAT; Hif2alpha RNAi agent antisense strand; modified_base 2,4,6,8,10,12,14,15,18 /mod_base = “2′-deoxy-2′-fluoro corresponding nucleoside”; modified_base 3,5,7,9,11,13,16,17,19 /mod_base = “2′-O-methyl corresponding nucleoside”; modified_base 2,3,21 /mod_base = “5′-phosphorothioate corresponding nucleotide”; Hif2alpha RNAi agent sense strand; modified_base 1,3,4,7,9,11,13,15,17,19 /mod_base = “2′-deoxy-2′-fluoro corresponding nucleoside”; modified_base 2,5,6,8,10,12,14,16,18 /mod_base = “2′-O-methyl corresponding nucleoside”; modified_base 20 /mod_base = “3′-3′-linked nucleotide”; modified_base 1)
Relative Expression day 4 (Hif2α mRNA in kidney tumor) (RNAi trigger 100 μg, polymer 100A 250 μg): 0.249

AD01555 (antisense TUUCAUGAAAUCGUUACGUTT; sense ACGUAACGAUUUCAUGAAAT; Hif2alpha RNAi agent antisense strand; modified_base 2,4,6,8,10,14,16,18 /mod_base = “2′-deoxy-2′-fluoro corresponding nucleoside”; modified_base 3,5,7,9,11,12,13,15,17,19 /mod_base = “2′-O-methyl corresponding nucleoside”; modified_base 2,3,21 /mod_base = “5′-phosphorothioate corresponding nucleotide”; Hif2alpha RNAi agent sense strand; modified_base 1,3,5,7,8,9,11,13,15,17,19 /mod_base = “2′-deoxy-2′-fluoro corresponding nucleoside”; modified_base 2,4,6,10,12,14,16,18 /mod_base = “2′-O-methyl corresponding nucleoside”; modified_base 20 /mod_base = “3′-3′-linked nucleotide”; modified_base 1)
Relative Expression day 4 (Hif2α mRNA in kidney tumor) [1]: 0.20

AD01524 (antisense TUUCAUGAAAUCGUUACGUTT; sense ACGUAACGAUUUCAUGAAAT; Hif2alpha RNAi agent antisense strand; modified_base 2,4,6,8,10,12,14,16,18 /mod_base = “2′-deoxy-2′-fluoro corresponding nucleoside”; modified_base 3,5,7,9,11,13,15,17,19 /mod_base = “2′-O-methyl corresponding nucleoside”; modified_base 2,3,21 /mod_base = “5′-phosphorothioate corresponding nucleotide”; Hif2alpha RNAi agent sense strand; modified_base 1,3,5,7,9,11,13,15,17,19 /mod_base = “2′-deoxy-2′-fluoro corresponding nucleoside”; modified_base 2,4,6,8,10,12,14,16,18 /mod_base = “2′-O-methyl corresponding nucleoside”; modified_base 20 /mod_base = “3′-3′-linked nucleotide”; modified_base 1)
Relative Expression day 4 (Hif2α mRNA in kidney tumor) [1]: 0.26

AD01030 (antisense TUUCAUGAAAUCGUUACGUTT; sense ACGUAACGAUUUCAUGAAAT; Hif2alpha RNAi agent antisense strand; modified_base 2,4,6,8,10,12,14,16,18 /mod_base = “2′-deoxy-2′-fluoro corresponding nucleoside”; modified_base 3,5,9,11,13,15,17,19 /mod_base = “2′-O-methyl corresponding nucleoside”; modified_base 7 /mod_base = “2′-3′ seco corresponding nucleotide”; modified_base 21 /mod_base = “5′-phosphorothioate corresponding nucleotide”; Hif2alpha RNAi agent sense strand; modified_base 1,3,5,7,9,11,13,15,17,19 /mod_base = “2′-deoxy-2′-fluoro corresponding nucleoside”; modified_base 2,4,6,8,10,12,14,16,18 /mod_base = “2′-O-methyl corresponding nucleoside”; modified_b)
Relative Expression day 4 (Hif2α mRNA in kidney tumor) [2]: 0.47

AD01295 (antisense TUUCAUGAAAUCGUUACGUUGGCUAU; sense UAUAUCAACGUAACGAUUUCAUGAAA; Hif2alpha RNAi agent antisense strand; modified_base 25 modified base = “2′-hydroxy corresponding nucleoside”; modified_base 2,4,6,8,10,14,16,18,20 /mod_base = “2′-deoxy-2′-fluoro corresponding nucleoside”; modified_base 3,5,7,9,11,12,13,15,17,19,21,22,23,24,26 /mod_base = “2′-O-methyl corresponding nucleoside”; modified_base 2,3,23,24 /mod_base = “5′-phosphorothioate corresponding nucleotide”; Hif2alpha RNAi agent sense strand; modified_base 2,4 modified base = “2′-hydroxy corresponding nucleoside”; modified_base 6,8,10,12,14,15,16,18,20,22,24,26 /mod_base = “2′-deoxy-2′-fluoro correspondin)
Relative Expression day 4 (Hif2α mRNA in kidney tumor) [2]: 0.22

AD03263 (antisense AUUCAUGAAAUCGUUACGUUG; sense ACGUAACGAUUUCAUGAAUN; Hif2alpha RNAi agent antisense strand; modified_base 2,8,10,14 /mod_base = “2′-deoxy-2′-fluoro corresponding nucleoside”; modified_base 1,3,4,5,6,7,9,11,12,13,15,16,17,18,19,20,21 /mod_base = “2′-O-methyl corresponding nucleoside”; modified_base 2,3,20,21 /mod_base = “5′-phosphorothioate corresponding nucleotide”; Hif2alpha RNAi agent sense strand; modified_base 7,8,9 /mod_base = “2′-deoxy-2′-fluoro corresponding nucleoside”; modified_base 1,2,3,4,5,6,10,11,12,13,14,15,16,17,18,19 /mod_base = “2′-O-methyl corresponding nucleoside”; modified_base 20 /mod_base = “3′-3′-linked abasic site”; mod)
Relative Expression day 4 (Hif2α mRNA in kidney tumor) [3]: 0.134

AD02859 (antisense UUUCAUGAAAUCGUUACGUUG; sense ACGUAACGAUUUCAUGAAAT; Hif2alpha RNAi agent antisense strand; modified_base 2,4,6,8,14 /mod_base = “2′-deoxy-2′-fluoro corresponding nucleoside”; modified_base 1,3,5,7,9,10,11,12,13,15,16,17,18,19,20,21 /mod_base = “2′-O-methyl corresponding nucleoside”; modified_base 2,3,20,21 /mod_base = “5′-phosphorothioate corresponding nucleotide”; Hif2alpha RNAi agent sense strand; modified_base 7,8,9 /mod_base = “2′-deoxy-2′-fluoro corresponding nucleoside”; modified_base 1,2,3,4,5,6,10,11,12,13,14,15,16,17,18,19 /mod_base = “2′-O-methyl corresponding nucleoside”; modified_base 20 /mod_base = “3′-3′-linked nucleotide”; modi)
Relative Expression day 4 (Hif2α mRNA in kidney tumor) [3]: 0.214

AD01884 (antisense UUUCAUGAAAUCGUUACGUTT; sense ACGUAACGAUUUCAUGAAAT; Hif2alpha RNAi agent antisense strand; modified_base 2,4,6,8,10,14,16,18 /mod_base = “2′-deoxy-2′-fluoro corresponding nucleoside”; modified_base 1,3,5,7,9,11,12,13,15,17,19 /mod_base = “2′-O-methyl corresponding nucleoside”; modified_base 2,3,21 /mod_base = “5′-phosphorothioate corresponding nucleotide”; Hif2alpha RNAi agent sense strand; modified_base 1,3,5,7,8,9,11,13,15,17,19 /mod_base = “2′-deoxy-2′-fluoro corresponding nucleoside”; modified_base 2,4,6,10,12,14,16,18 /mod_base = “2′-O-methyl corresponding nucleoside”; modified_base 20 /mod_base = “3′-3′-linked nucleotide”; modified_base)
Relative Expression day 4 (Hif2α mRNA in kidney tumor) [3]: 0.203 | Relative Expression day 4 (Hif2α mRNA in kidney tumor) (RNAi trigger 75 μg, polymer 064 187.5 μg): 0.227 | Relative Expression day 4 (Hif2α mRNA in kidney tumor) (RNAi trigger 100 μg, polymer 064 250 μg): 0.091
